This data set has as its system Human Bronchial Epithelial Cells. In words: Absorption rate across human bronchial epithelial cells. The format is in vitro ADME. Conditions: n=3. On the procedure:
Bronchial cells (dog, human, sheep, or rodent cells) are seeded at a density of 0.25×10^6/cm^2 on a porous Transwell-Col collagen-coated membrane with a growth area of 1.13 cm^2 grown at an air-liquid interface in hormonally defined media that promotes a polarized epithelium. From 12 to 20 days after development of an air-liquid interface (ALI) the cultures are expected to be >90% ciliated, and mucins will accumulate on the cells. To ensure the integrity of primary airway epithelial cell preparations, the transepithelial resistance (R1) and transepithelial potential differences (PD), which are indicators of the integrity of polarized nature of the culture, are measured. […] Concentrations are determined by measuring intrinsic fluorescence of each sodium channel blocker using a Fluorocount Microplate Flourometer or HPLC. Quantitative analysis employs a standard curve generated from authentic reference standard materials of known concentration and purity. […]
In the first series of assays, the interaction of test compounds in KBR as an “ASL” stimulant are applied to the apical surface of human airway epithelial cells grown in the T-Col insert system. […] In instances where the fluorescence properties of the test molecule are not adequate for such characterizations, radiolabeled compounds are used for these assays. […]

As to `CN(C)C(=O)[C@H](CCCCNC(=N)N)NC(=O)[C@H](CCc1ccc(CCCCNC(=N)NC(=O)c2nc(Cl)c(N)nc2N)cc1)N(C)C` [Compound I, 3,5-diamino-6-chloro-N-(N-(4-(4-((S)-3-(dimethylamino)-4-((S)-1-(dimethylamino)-6-guanidino-1-oxohexan-2-ylamino)-4-oxobutyl)phenyl)butyl)carbamimidoyl)pyrazine-2-carboxamide], the “Absorption Rate Across Human Bronchial Epithelial Cells” value stood at 0.12±0.05 nM/cm^2/min.

Source of the values: patent US10159672B2 (PARION SCIENCES, INC., priority 2011, dated 2018).
